Data: US20110027325A1, “ORALLY-ADMINISTERED AGENT” (Lintec Corporation, priority 2008, published 2011)

Assay: Viscosity of aqueous solution, E-type viscometer
Assay type: physicochemical
Conditions: 37° C.
Description: Tables 1 and 2 shown the constituent materials of the respective layers of the orally-administered agents obtained in the respective Examples and the respective Comparative Examples and the contents thereof. […] Furthermore, the viscosity of the water absorption promoter in the Table 1 and the viscosity of the antiadhesive agent in the Table 2 denote a viscosity at 37° C. of an aqueous solution of 5 mass % of the water absorption promoter and the antiadhesive agent, respectively. Each viscosity was measured with an E-type viscometer (a product of Tokimec, Inc.).

OC[C@@H](O)[C@@H](O)[C@H](O)[C@H](O)CO [Man, mannitol]
Viscosity of antiadhesive agent (aqueous solution of 5 mass % of the antiadhesive agent): 0.87 mPa · s | Viscosity of water absorption promoter (aqueous solution of 5 mass % of the water absorption promoter): 0.87 mPa · s
